From ChEMBL document CHEMBL1127360, “Antipodal alpha-N-(methyl through decyl)-N-normetazocines (5,9 alpha-dimethyl-2'-hydroxy-6,7-benzomorphans): in vitro and in vivo properties” (J Med Chem, 1994)
The source made the active and inactive calls. The calls are words filed in the database; no cut-off is given here.

Assays:
[1] = species: Cavia porcellus; test: Ratio of potencies against sigma receptor to that of Mu receptor of rat
[2] = test system: Mus musculus; test: In vivo for its narcotic antagonistic activity of the antinociceptive effect in mouse; assay type: functional, organism-based
[3] = test system: Mus musculus; test: In vivo antinociceptive activity was tested through hot plate (HP) and counting jumps or paw licks; assay type: functional, organism-based
[4] = target: Mu-type opioid receptor (Rattus norvegicus, UniProt P33535); test: Inhibition against mu receptor using [3H]DAMGO in homogenate of rat brain cerebellum; assay type: tissue-based
Mu-type opioid receptor, sequence (P33535 whole entry): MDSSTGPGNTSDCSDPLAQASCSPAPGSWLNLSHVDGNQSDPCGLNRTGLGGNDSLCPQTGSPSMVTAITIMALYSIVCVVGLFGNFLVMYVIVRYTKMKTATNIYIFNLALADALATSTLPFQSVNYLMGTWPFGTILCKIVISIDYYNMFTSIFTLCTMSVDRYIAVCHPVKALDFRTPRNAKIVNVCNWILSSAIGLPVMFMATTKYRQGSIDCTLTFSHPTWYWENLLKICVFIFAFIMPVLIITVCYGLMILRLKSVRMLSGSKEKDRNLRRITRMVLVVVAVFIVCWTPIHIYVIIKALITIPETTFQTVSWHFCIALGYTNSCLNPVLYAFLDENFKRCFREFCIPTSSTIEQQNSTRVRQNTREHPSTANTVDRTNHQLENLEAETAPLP

[5] = target: Glutamate NMDA receptor; test: Inhibition using [3H]TCP in homogenate of rat brain; assay type: tissue-based
[6] = species: Cavia porcellus; test: Ratio of potencies against PCP receptor to that of sigma receptor
[7] = test system: Cercopithecidae; test: Ratio of potencies against Mu receptor of monkey to that of rat
[8] = target: T1, Glutamate NMDA receptor (Rattus norvegicus) (UniProt P35439+Q00959+Q00960+Q00961+Q62645+Q8VHN2+Q9R1M7); test: Ratio of potencies against PCP receptor to that of Mu receptor of rat; assay type: protein-complex assay
[9] = test system: Mus musculus; test: (§1) In vivo antinociceptive activity was tested through tail flick (TF) with this compound in mouse; assay type: functional; design: unit not given beside the values
[10] = target: Mu-type opioid receptor (Homo sapiens) (UniProt P35372); test: Ratio of potencies against Mu receptor to that of kappa receptor of monkey; settings: Cercopithecidae; target entry is the homologue from another species
Mu-type opioid receptor (Homo sapiens), sequence (P35372 whole entry): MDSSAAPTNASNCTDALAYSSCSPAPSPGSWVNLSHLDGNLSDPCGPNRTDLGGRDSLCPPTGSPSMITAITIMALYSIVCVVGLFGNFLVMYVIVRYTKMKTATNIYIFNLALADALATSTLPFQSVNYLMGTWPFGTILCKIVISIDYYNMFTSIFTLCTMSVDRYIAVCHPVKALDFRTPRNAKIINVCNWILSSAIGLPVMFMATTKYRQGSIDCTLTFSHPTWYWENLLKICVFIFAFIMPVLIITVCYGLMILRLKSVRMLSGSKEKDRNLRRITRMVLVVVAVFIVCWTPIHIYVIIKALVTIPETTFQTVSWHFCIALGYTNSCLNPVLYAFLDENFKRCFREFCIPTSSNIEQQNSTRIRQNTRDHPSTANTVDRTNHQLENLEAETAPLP

[11] = test system: Mus musculus; test: In vivo antinociceptive activity was tested through injecting 2 mg/kg ip phenylquinone, activity calculated by total number of abdominal-stretches; assay type: functional, Abdomen; settings: route intraperitoneal
[12] = test system: Mus musculus; test: In vivo antinociceptive activity through hot plate (HP) by placing mouse on hot plate, and calculating number of times it jumps or licks its paw in 5 seconds; assay type: functional
[13] = target: Mu-type opioid receptor (Homo sapiens) (UniProt P35372); test: Ratio of potencies of (+) and (-) enantiomers against Mu receptors in monkeys; settings: Cercopithecidae; target entry is the homologue from another species
[14] = target: Kappa-type opioid receptor (Homo sapiens) (UniProt P41145); test: Ratio of potencies of (+) and (-) enantiomers against kappa receptors in monkeys; settings: Cercopithecidae; target entry is the homologue from another species
Kappa-type opioid receptor (Homo sapiens), sequence (P41145 whole entry): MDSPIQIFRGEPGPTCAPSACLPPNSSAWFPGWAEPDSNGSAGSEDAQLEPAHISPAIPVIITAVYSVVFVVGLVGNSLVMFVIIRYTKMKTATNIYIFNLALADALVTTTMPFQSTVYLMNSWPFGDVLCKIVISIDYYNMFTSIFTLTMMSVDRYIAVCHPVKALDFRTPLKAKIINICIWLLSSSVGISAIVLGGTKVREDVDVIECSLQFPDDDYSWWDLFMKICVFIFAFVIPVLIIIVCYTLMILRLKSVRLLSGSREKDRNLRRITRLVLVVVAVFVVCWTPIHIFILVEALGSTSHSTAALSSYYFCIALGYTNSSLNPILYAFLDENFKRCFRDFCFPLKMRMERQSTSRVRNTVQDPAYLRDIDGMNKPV

[15] = test system: Mus musculus; test: as §1; assay type: functional, organism-based
[16] = target: T1, Glutamate NMDA receptor (Rattus norvegicus); test: Ratio of potencies of (+) and (-) enantiomers against PCP in rats
[17] = test system: Mus musculus; test: Compound was tested in vivo for its narcotic antagonistic activity of the antinociceptive effect in mouse; assay type: functional
[18] = target: Mu-type opioid receptor (Rattus norvegicus) (UniProt P33535); test: Ratio of potencies of (+) and (-) enantiomers against Mu receptors in Rats
Mu-type opioid receptor (Rattus norvegicus), sequence (P33535 whole entry): as the sequence (P33535 whole entry) above

[19] = test system: Mus musculus; test: In vivo antinociceptive activity at 30 mg/kg was tested through injecting 2 mg/kg ip phenylquinone, activity calculated by total number of abdominal-stretches per group counted over a 1 min period; assay type: functional
[20] = test system: Mus musculus; test: In vivo antinociceptive activity through injecting 2 mg/kg ip phenylquinone, activity calculated by total number of abdominal-stretches per group counted over a 1 min period; Inactive; assay type: functional, organism-based; design: dose 2 mg/kg
[21] = test system: Mus musculus; test: In vivo antinociceptive activity was tested through tail flick (TF) with this compound in mouse at 30 mg/kg concentration; assay type: functional

Structure (SMILES) | Ratio [1] | Activity [2] | Activity [3] | Ki [4] | Ki [5] | Ratio [6] | Ratio [7] | Ratio [8] | Activity [9] | Ratio [10] | Activity [11] | Activity [12] | Ratio [13] | Ratio [14] | Activity [15] | Ratio [16] | Ratio [18] | other results
CCCCCCN1CC[C@@]2(C)c3cc(O)ccc3CC1[C@H]2C | 0.003 | inactive | inactive | 0.795 µM | 7.3 µM | 3180 | 0.4 | 9.2 | 21.3 | 7.1 | 5.6 |  |  |  |  |  |  | 
CCCCCN1CC[C@@]2(C)c3cc(O)ccc3CC1[C@H]2C |  | inactive |  | 1.74 µM | 1.7 µM |  |  |  | 20.4 |  | 1 | 38 |  |  |  |  |  | 
CCCN1CC[C@]2(C)c3cc(O)ccc3CC1[C@@H]2C | 97 |  | inactive | 0.0076 µM | 0.264 µM | 0.4 | 0.2 | 35 |  | 1.3 | 22 |  | 629 | 226 | inactive | 2.3 | 687 | Activity [17]: 0.4
CCCCN1CC[C@@]2(C)c3cc(O)ccc3CC1[C@H]2C | 0.002 | inactive | inactive | 2.88 µM | 0.893 µM | 149 | 0.4 | 0.3 |  | 0.6 |  |  |  |  | inactive |  |  | Inhibition [19]: 43%
CCCCCCCCN1CC[C@]2(C)c3cc(O)ccc3CC1[C@@H]2C | 1.2 | inactive |  | 0.03 µM | 7.97 µM | 228 | 2 | 266 | 10.3 | 1.3 | 0.5 | 5.4 | 2.7 | 29 |  | 0.1 | 17 | 
CCCCCN1CC[C@]2(C)c3cc(O)ccc3CC1[C@@H]2C |  | inactive |  | 0.016 µM | 2.47 µM |  |  |  | 1.3 |  | 0.2 | 2.4 |  |  |  |  |  | 
CCCCCCCCCCN1CC[C@]2(C)c3cc(O)ccc3CC1[C@H]2C | 0.02 | inactive | inactive | 4.62 µM | 4.19 µM | 61 | 0.2 | 0.9 |  | 3 |  |  |  |  | inactive |  |  | Activity [20]: inactive
C[C@H]1C2Cc3ccc(O)cc3[C@@]1(C)CCN2C | 1640 | inactive |  | 0.011 µM | 1.19 µM | 0.07 | 0.4 | 108 | 0.8 | 4 | 0.3 | 0.6 | 328 | 222 |  | 0.03 | 452 | 
CCCCCCN1CC[C@]2(C)c3cc(O)ccc3CC1[C@@H]2C | 8.5 | inactive |  | 0.0047 µM | 3.35 µM | 84 | 8.3 | 712 | 1.1 | 1.1 | 0.13 | 2.4 | 8.2 | 53 |  | 2.2 | 169 | 
CCCCCCCCCCN1CC[C@]2(C)c3cc(O)ccc3CC1[C@@H]2C | 0.08 | inactive | inactive | 0.507 µM | 10 µM | 263 | 2 | 20 |  | 2.3 |  |  | 0.8 | 1 | inactive | 0.4 | 9.1 | Activity [20]: inactive
CCCCCCCCCN1CC[C@]2(C)c3cc(O)ccc3CC1[C@@H]2C | 0.2 | inactive | inactive | 0.151 µM | 6.17 µM | 193 | 1.2 | 41 |  | 3.9 |  |  | 0.7 | 3.2 | inactive | 0.7 | 9.1 | Activity [20]: inactive
CCCCCCCN1CC[C@]2(C)c3cc(O)ccc3CC1[C@H]2C | 0.008 | inactive |  | 0.243 µM | 2.57 µM | 1350 | 1.1 | 11 | 12.9 | 2.8 | 3.5 | 11.5 |  |  |  |  |  | 
CCCCCCCN1CC[C@]2(C)c3cc(O)ccc3CC1[C@@H]2C | 5.6 | inactive |  | 0.0088 µM | 5.63 µM | 115 | 3.1 | 640 | 1.7 | 1.2 | 0.13 | 2.4 | 9.6 | 23 |  | 0.5 | 28 | 
CCCCCCCCCN1CC[C@]2(C)c3cc(O)ccc3CC1[C@H]2C | 0.009 | inactive | inactive | 1.38 µM | 4.15 µM | 346 | 0.1 | 3 |  | 18 |  |  |  |  | inactive |  |  | Activity [20]: inactive
CCN1CC[C@@]2(C)c3cc(O)ccc3CC1[C@H]2C |  | inactive | inactive | 10 µM | 0.13 µM |  |  |  |  |  | 33.5 |  |  |  | inactive |  |  | 
CCCCCCCCN1CC[C@]2(C)c3cc(O)ccc3CC1[C@H]2C | 0.005 | inactive |  | 0.522 µM | 0.786 µM | 281 | 0.3 | 1.5 |  | 14.2 | 7.8 | 11.1 |  |  |  |  |  | inhibition in vivo at 30 mg/kg [21]: 14%
